Assay results reported in patent publication US20210171948A1, “COMPOSITIONS AND METHODS FOR TARGETING GLYPICAN-2 IN THE TREATMENT OF CANCER” (Shepherd Therapeutics, Inc., priority 2019, published 2021).
Strand notation (5' to 3'): a small letter for the sugar, then the base; units joined by * are phosphorothioate-linked, units joined directly phosphodiester-linked; [ ] holds rarer units or linkages, { } end groups; capitals alone tell only the bases. d = 2'-deoxy (DNA); r = 2'-OH (RNA)

Legend:
[1] = system: GPC2 mRNA; test: GPC2 mRNA knockdown in neuroblastoma cell lines (Example 4); format: cell-based, human; details: for Time point at which GPC2 mRNA knockdown was first observed: CHP212, SH-SY5Y and CHLA90 neuroblastoma cell lines; for Degree of GPC2 knockdown among sequences 3, 5, 12-15: CHP212, SKNAS and SHSY5Y neuroblastoma cell lines, 96 hour incubation (FIG. 3A); for Degree of GPC2 knockdown among sequences 3, 5, 6-11: CHP212 neuroblastoma cell line, 96 hour incubation (FIG. 4A)
Protocol: (§1) GPC2 mRNA knockdown was assessed in multiple neuroblastoma cell lines. Cells were transfected with either a scrambled control siRNA, with GPC2 siRNA sequences 3 or 5 from Table 7, or with siRNA sequences generated by Dharmacon (sequences 12-15 from Table 7) using the RNAiMAX Lipofectamine kit (Invitrogen, Carlsbad, Calif.) as previously described. Following a 96 hour incubation period, total RNA samples were collected to compare knockdown efficiency and viability was measured in parallel plated cells.
The extent of GPC2 mRNA reduction was assessed with additional GPC2 siRNA sequences in the CHP212 neuroblastoma cell line. Cells were transfected with either a scrambled control siRNA or with GPC2 siRNA sequences 3 or 5, or with siRNA sequences 6-11 (Sigma) using the RNAiMAX Lipofectamine kit (Invitrogen, Carlsbad, Calif.) as previously described. Following a 96 hour incubation period, total RNA samples were collected and viability was measured in parallel plated cells.
(§2) The extent of GPC2 mRNA reduction (knockdown) and corresponding protein level expression changes were assessed in three neuroblastoma cell lines following siRNA knockdown of GPC2. The CHP212 neuroblastoma cell line (FIG. 5A and FIG. 5D), the SH-SY5Y neuroblastoma cell line (FIG. 5B and FIG. 5E) and the CHLA90 neuroblastoma cell line (FIG. 5C and FIG. 5F) were transfected with GPC2 siRNA sequences 5 and 7 from Table 7 and a scrambled control siRNA using the RNAiMAX Lipofectamine kit (Invitrogen, Carlsbad, Calif.) as previously described. Following a 24, 48, or 72 hour incubation period, cells were washed and total RNA was isolated for measuring GPC2 mRNA expression. For protein analysis, cells were fixed, immunostained using an antibody against GPC2 protein, protein expression was measured via flow cytometry. As shown, GPC2 mRNA knockdown was observed beginning at the 24 hr time point and lasted for at least 72 hours. GPC2 protein expression started to decrease at the 48 hr time point.

[2] = system: CHP212, SKNAS and SHSY5Y neuroblastoma cell lines; test: Cell viability after siRNA transfection, 96 hour (Example 4, FIG. 3B); format: cell-based; details: 96 hour incubation (FIG. 3B)
Protocol: as §1

[3] = system: GPC2 protein; test: GPC2 protein expression by flow cytometry of immunostained cells after siRNA transfection; format: cell-based, human; details: for Time point at which GPC2 protein expression started to decrease: CHP212, SH-SY5Y and CHLA90 neuroblastoma cell lines
Protocol: as §2

[4] = system: CHLA-136 cells; test: Carboplatin IC50 in siRNA-transfected cells, Cell Titer Glo 2.0 viability (Example 6); format: cell-based; details: for Data Summary: effect of knockdown on sensitivity to carboplatin: CHLA-136; for IC50: CHLA-136 cells transfected with the labelled siRNA, carboplatin added 24 hours post transfection, 72 hour incubation
Protocol: (§3) GPC2 mRNA expression was reduced using the indicated siRNAs and changes in cell viability were assessed in multiple neuroblastoma cell lines. Cells were transfected with either a control siRNA or with GPC2 siRNA sequences 3, 5 or 7 from Table 7 using the RNAiMAX Lipofectamine kit (Invitrogen, Carlsbad, Calif.) as previously described in 96 wells for viability assays. Carboplatin was added at increasing concentrations (0 to 150 uM) to transfected cells at 24 hours post transfection. Following a 72 hour incubation period, viability measurements were made using Cell Titer Glo 2.0.

[5] = system: CHLA-172 cells; test: as above; format: cell-based; details: for Data Summary: effect of knockdown on sensitivity to carboplatin: CHLA-172; for IC50: CHLA-172 cells transfected with the labelled siRNA, carboplatin added 24 hours post transfection, 72 hour incubation
Protocol: as §3

[6] = system: KELLY cells; test: as above; format: cell-based; details: for IC50: KELLY cells transfected with the labelled siRNA, carboplatin added 24 hours post transfection, 72 hour incubation
Protocol: as §3

[7] = system: SKNAS cells; test: as above; format: cell-based; details: for Data Summary: effect of knockdown on sensitivity to carboplatin: SKNAS; for IC50: SKNAS cells transfected with the labelled siRNA, carboplatin added 24 hours post transfection, 72 hour incubation
Protocol: as §3

[8] = system: CHLA-136 cells; test: Doxorubicin IC50 in siRNA-transfected cells, Cell Titer Glo viability (Example 8); format: cell-based; details: for IC50: CHLA-136 cells transfected with the labelled siRNA, doxorubicin added 24 hours post transfection, 72 hour incubation
Protocol: as §3, with “reduced” for “reduced using the indicated siRNAs”, “with GPC-2” for “with GPC2”, “assays. Doxorubicin” for “assays. Carboplatin”, “concentrations (0-5” for “concentrations (0 to 150”, “Titer Glo.” for “Titer Glo 2.0.”

[9] = system: CHLA-172 cells; test: as above; format: cell-based; details: for IC50: CHLA-172 cells transfected with the labelled siRNA, doxorubicin added 24 hours post transfection, 72 hour incubation
Protocol: as §3, with “reduced” for “reduced using the indicated siRNAs”, “with GPC-2” for “with GPC2”, “assays. Doxorubicin” for “assays. Carboplatin”, “concentrations (0-5” for “concentrations (0 to 150”, “Titer Glo.” for “Titer Glo 2.0.”

[10] = system: KELLY cells; test: as above; format: cell-based; details: for Data Summary: effect of knockdown on sensitivity to doxorubicin: KELLY; for IC50: KELLY cells transfected with the labelled siRNA, doxorubicin added 24 hours post transfection, 72 hour incubation
Protocol: as §3, with “reduced” for “reduced using the indicated siRNAs”, “with GPC-2” for “with GPC2”, “assays. Doxorubicin” for “assays. Carboplatin”, “concentrations (0-5” for “concentrations (0 to 150”, “Titer Glo.” for “Titer Glo 2.0.”

[11] = system: SKNAS cells; test: as above; format: cell-based; details: for Data Summary: effect of knockdown on sensitivity to doxorubicin: SKNAS; for IC50: SKNAS cells transfected with the labelled siRNA, doxorubicin added 24 hours post transfection, 72 hour incubation
Protocol: as §3, with “reduced” for “reduced using the indicated siRNAs”, “with GPC-2” for “with GPC2”, “assays. Doxorubicin” for “assays. Carboplatin”, “concentrations (0-5” for “concentrations (0 to 150”, “Titer Glo.” for “Titer Glo 2.0.”

[12] = system: CHLA-136 cells; test: Etoposide IC50 in siRNA-transfected cells, Cell Titer Glo 2.0 viability (Example 9); format: cell-based; details: for IC50: CHLA-136 cells transfected with the labelled siRNA, etoposide added 24 hours post transfection, 72 hour incubation
Protocol: as §3, with “reduced” for “reduced using the indicated siRNAs”, “Etoposide” for “Carboplatin”, “(0-15” for “(0 to 150”, “measurement” for “measurements”

[13] = system: CHLA-172 cells; test: as above; format: cell-based; details: for Data Summary: effect of knockdown on sensitivity to etoposide: CHLA-172; for IC50: CHLA-172 cells transfected with the labelled siRNA, etoposide added 24 hours post transfection, 72 hour incubation
Protocol: as §3, with “reduced” for “reduced using the indicated siRNAs”, “Etoposide” for “Carboplatin”, “(0-15” for “(0 to 150”, “measurement” for “measurements”

[14] = system: KELLY cells; test: as above; format: cell-based; details: for Data Summary: effect of knockdown on sensitivity to etoposide: KELLY; for IC50: KELLY cells transfected with the labelled siRNA, etoposide added 24 hours post transfection, 72 hour incubation
Protocol: as §3, with “reduced” for “reduced using the indicated siRNAs”, “Etoposide” for “Carboplatin”, “(0-15” for “(0 to 150”, “measurement” for “measurements”

[15] = system: SKNAS cells; test: as above; format: cell-based; details: for Data Summary: effect of knockdown on sensitivity to etoposide: SKNAS; for IC50: SKNAS cells transfected with the labelled siRNA, etoposide added 24 hours post transfection, 72 hour incubation
Protocol: as §3, with “reduced” for “reduced using the indicated siRNAs”, “Etoposide” for “Carboplatin”, “(0-15” for “(0 to 150”, “measurement” for “measurements”

[16] = CHLA90 neuroblastoma cells (FIG. 5C)
[17] = CHP212 neuroblastoma cells (FIG. 5A)
[18] = SH-SY5Y neuroblastoma cells (FIG. 5B)
[19] = CHLA90 cells, at 72 hours (FIG. 5F)
[20] = CHP212 cells, at 48 and 72 hours (FIG. 5D)
[21] = SH-SY5Y cells, at 48 and 72 hours (FIG. 5E)

Row | Substance | Time for which reduced GPC2 mRNA expression was sustained [1, 16] [h] | Time point at which GPC2 mRNA knockdown was first observed [1] [h] | Degree of GPC2 knockdown among sequences 3, 5, 12-15 [1] | Degree of GPC2 knockdown among sequences 3, 5, 6-11 [1] | Time for which reduced GPC2 mRNA expression was sustained [1, 17] [h] | Time for which reduced GPC2 mRNA expression was sustained [1, 18] [h] | Viability decrease among sequences 3, 5, 12-15 [2] | GPC2 protein expression (Mean Fluorescence (FL1) Intensity) [3, 19] | Time point at which GPC2 protein expression started to decrease [3] [h] | GPC2 protein expression (Mean Fluorescence (FL1) Intensity) [3, 20] | GPC2 protein expression (Mean Fluorescence (FL1) Intensity) [3, 21] | Data Summary: effect of knockdown on sensitivity to carboplatin [4] | IC50 [4] [nM] | Data Summary: effect of knockdown on sensitivity to carboplatin [5] | IC50 [5] [nM] | IC50 [6] [nM] | Data Summary: effect of knockdown on sensitivity to carboplatin [7] | IC50 [7] [nM] | IC50 [8] [nM] | IC50 [9] [nM] | further results
1 | GPC2 siRNA 5: siRNA duplex: sense CUCAGUAGCCCAGCACUCU[dT][dT] (SEQ ID NO: 211), anti-sense AGAGUGCUGGGCUACUGAG[dT][dT] (SEQ ID NO: 212) (sense CUCAGUAGCCCAGCACUCUTT; antisense AGAGUGCUGGGCUACUGAGTT; sugars from the 5' end r19 d2, backbone not given here; listed as Homo sapiens) | 72 | 24 | greater | greater | 72 | 72 | greater viability decrease | Reduced GPC2 protein expression | 48 | Reduced GPC2 protein expression | Reduced GPC2 protein expression | not increase sensitivity | 36000 | increases sensitivity to | 100000 | 9000 | increases sensitivity to | 15300 | 80 | 900 | Data Summary: effect of knockdown on sensitivity to carboplatin ([6]; KELLY): KD with sequence 5 increases; Data Summary: effect of knockdown on sensitivity to doxorubicin ([8]; CHLA-136): KD with sequence 5 increases; Data Summary: effect of knockdown on sensitivity to doxorubicin ([9]; CHLA-172): KD with sequence 5 increases; Data Summary: effect of knockdown on sensitivity to doxorubicin [10]: not increase sensitivity; IC50 [10]: 60 nM; Data Summary: effect of knockdown on sensitivity to doxorubicin [11]: increases sensitivity to; IC50 [11]: 20 nM; IC50 [12]: 80 nM; Data Summary: effect of knockdown on sensitivity to etoposide [13]: increases sensitivity to etoposide; IC50 [13]: 900 nM; Data Summary: effect of knockdown on sensitivity to etoposide [14]: increases sensitivity to etoposide; IC50 [14]: 60 nM; Data Summary: effect of knockdown on sensitivity to etoposide [15]: increases sensitivity to etoposide; IC50 [15]: 20 nM
2 | GPC2 siRNA 3: siRNA duplex: sense CCUGCUUGGACCUCGAUAA[dT][dT] (SEQ ID NO: 207), anti-sense UUAUCGAGGUCCAAGCAGG[dT][dT] (SEQ ID NO: 208) (sense CCUGCUUGGACCUCGAUAANN; antisense UUAUCGAGGUCCAAGCAGGNN; 3' dTdT overhangs, chemistry not fully specified; listed as Homo sapiens) |  |  | greater |  |  |  | greater viability decrease |  |  |  |  | not increase sensitivity | 47000 | increases sensitivity to | 100000 | 12000 | increases sensitivity to | 40000 | 170 | 2000 | Data Summary: effect of knockdown on sensitivity to doxorubicin [10]: not increase sensitivity; IC50 [10]: 70 nM; Data Summary: effect of knockdown on sensitivity to doxorubicin [11]: increases sensitivity to; IC50 [11]: 40 nM; Data Summary: effect of knockdown on sensitivity to etoposide ([12]; CHLA-136): increases sensitivity to etoposide; IC50 [12]: 170 nM; Data Summary: effect of knockdown on sensitivity to etoposide [13]: increases sensitivity to etoposide; IC50 [13]: 2000 nM; Data Summary: effect of knockdown on sensitivity to etoposide [14]: increases sensitivity to etoposide; IC50 [14]: 70 nM; Data Summary: effect of knockdown on sensitivity to etoposide [15]: increases sensitivity to etoposide; IC50 [15]: 40 nM
3 | GPC2 siRNA 7: siRNA duplex: sense CUCCUUUCUGGUUCACACA[dT][dT] (SEQ ID NO: 215), anti-sense UGUGUGAACCAGAAAGGAG[dT][dT] (SEQ ID NO: 216) (sense rCrUrCrCrUrUrUrCrUrGrGrUrUrCrArCrArCrAdTdT; antisense rUrGrUrGrUrGrArArCrCrArGrArArArGrGrArGdTdT; listed as Homo sapiens) | 72 | 24 |  | greater | 72 | 72 |  | Reduced GPC2 protein expression | 48 | Reduced GPC2 protein expression | Reduced GPC2 protein expression |  |  |  |  |  |  |  |  |  | 
